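Values below derive from 48-hour exposures of cells grown in 96-well plates, with endpoints linearly interpolated between the two concentrations bracketing the appropriate inhibition level. The concentration for full growth arrest is given as TGI.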
What was measured:
Test in all cases: NCI anticancer screen, dose series, 48 h
COLO 205 colon = system: COLO 205 colon
SNB-19 CNS = system: SNB-19 CNS
U251 CNS = system: U251 CNS
HCT-116 colon = system: HCT-116 colon
CCRF-CEM leukemia = system: CCRF-CEM leukemia
PC-3 prostate = system: PC-3 prostate
OVCAR-5 ovarian = system: OVCAR-5 ovarian
KM12 colon = system: KM12 colon
OVCAR-8 ovarian = system: OVCAR-8 ovarian
HS 578T breast = system: HS 578T breast
A498 renal = system: A498 renal
LOX IMVI melanoma = system: LOX IMVI melanoma
K-562 leukemia = system: K-562 leukemia
BT-549 breast = system: BT-549 breast
SR leukemia = system: SR leukemia
RPMI-8226 leukemia = system: RPMI-8226 leukemia
CAKI-1 renal = system: CAKI-1 renal
HOP-92 NSCLC = system: HOP-92 NSCLC
HCT-15 colon = system: HCT-15 colon
SN12C renal = system: SN12C renal
SK-MEL-28 melanoma = system: SK-MEL-28 melanoma
A549 NSCLC = system: A549 NSCLC
NCI-H226 lung = system: NCI-H226 lung
NCI-H522 lung = system: NCI-H522 lung
MDA-MB-435 = system: MDA-MB-435
MALME-3M melanoma = system: MALME-3M melanoma
SF-539 CNS = system: SF-539 CNS
M14 melanoma = system: M14 melanoma
NCI/ADR-RES ovarian = system: NCI/ADR-RES ovarian
TK-10 renal = system: TK-10 renal
UO-31 renal = system: UO-31 renal
MDA-N = system: MDA-N
MCF7 breast = system: MCF7 breast
IGROV1 ovarian = system: IGROV1 ovarian
SK-MEL-5 melanoma = system: SK-MEL-5 melanoma
OVCAR-3 ovarian = system: OVCAR-3 ovarian
SW-620 colon = system: SW-620 colon
HOP-62 NSCLC = system: HOP-62 NSCLC
HT29 colon = system: HT29 colon
UACC-62 melanoma = system: UACC-62 melanoma
EKVX NSCLC = system: EKVX NSCLC
SK-MEL-2 melanoma = system: SK-MEL-2 melanoma
MDA-MB-231 breast = system: MDA-MB-231 breast
SF-295 CNS = system: SF-295 CNS
NCI-H23 lung = system: NCI-H23 lung
SK-OV-3 ovarian = system: SK-OV-3 ovarian
SF-268 CNS = system: SF-268 CNS
HL-60(TB) leukemia = system: HL-60(TB) leukemia
UACC-257 melanoma = system: UACC-257 melanoma
MOLT-4 leukemia = system: MOLT-4 leukemia
NCI-H460 lung = system: NCI-H460 lung
SNB-75 CNS = system: SNB-75 CNS
ACHN renal = system: ACHN renal
HCC-2998 colon = system: HCC-2998 colon
786-0 renal = system: 786-0 renal

## CC(=O)OC(C(=O)O)C(OC(C)=O)C(OC(C)=O)C(OC(C)=O)C(=O)O (stereo not drawn)
COLO 205 colon
  TGI: > 100 µM
SNB-19 CNS
  TGI: > 100 µM
U251 CNS
  TGI: > 100 µM
HCT-116 colon
  TGI: > 100 µM
CCRF-CEM leukemia
  TGI: > 100 µM
PC-3 prostate
  TGI: > 100 µM
OVCAR-5 ovarian
  TGI: > 100 µM
KM12 colon
  TGI: > 100 µM
OVCAR-8 ovarian
  TGI: > 100 µM
HS 578T breast
  TGI: > 100 µM
A498 renal
  TGI: > 100 µM
LOX IMVI melanoma
  TGI: > 100 µM
K-562 leukemia
  TGI: > 100 µM
BT-549 breast
  TGI: > 100 µM
SR leukemia
  TGI: > 100 µM
RPMI-8226 leukemia
  TGI: > 100 µM
CAKI-1 renal
  TGI: > 100 µM
HOP-92 NSCLC
  TGI: > 100 µM
HCT-15 colon
  TGI: > 100 µM
SN12C renal
  TGI: > 100 µM
SK-MEL-28 melanoma
  TGI: > 100 µM
A549 NSCLC
  TGI: > 100 µM
NCI-H226 lung
  TGI: > 100 µM
NCI-H522 lung
  TGI: > 100 µM
MDA-MB-435
  TGI: > 100 µM
MALME-3M melanoma
  TGI: > 100 µM
SF-539 CNS
  TGI: > 100 µM
M14 melanoma
  TGI: > 100 µM
NCI/ADR-RES ovarian
  TGI: > 100 µM
TK-10 renal
  TGI: > 100 µM
UO-31 renal
  TGI: > 100 µM
MDA-N
  TGI: > 100 µM
MCF7 breast
  TGI: > 100 µM
IGROV1 ovarian
  TGI: > 100 µM
SK-MEL-5 melanoma
  TGI: > 100 µM
OVCAR-3 ovarian
  TGI: > 100 µM
SW-620 colon
  TGI: > 100 µM
HOP-62 NSCLC
  TGI: > 100 µM
HT29 colon
  TGI: > 100 µM
UACC-62 melanoma
  TGI: > 100 µM
EKVX NSCLC
  TGI: > 100 µM
SK-MEL-2 melanoma
  TGI: > 100 µM
MDA-MB-231 breast
  TGI: > 100 µM
SF-295 CNS
  TGI: > 100 µM
NCI-H23 lung
  TGI: > 100 µM
SK-OV-3 ovarian
  TGI: > 100 µM
SF-268 CNS
  TGI: > 100 µM
HL-60(TB) leukemia
  TGI: > 100 µM
UACC-257 melanoma
  TGI: > 100 µM
MOLT-4 leukemia
  TGI: > 100 µM
NCI-H460 lung
  TGI: > 100 µM

## Cc1ccc(S(=O)(=O)N(CCN)c2cc3c4c(c2)Oc2cccc5c2C4c2c(cccc2O3)O5)cc1
COLO 205 colon
  TGI: 57.9 µM
SNB-19 CNS
  TGI: > 100 µM
U251 CNS
  TGI: > 100 µM
HCT-116 colon
  TGI: 30.5 µM
CCRF-CEM leukemia
  TGI: 57.9 µM
PC-3 prostate
  TGI: 35.7 µM
OVCAR-5 ovarian
  TGI: 62.1 µM
KM12 colon
  TGI: > 100 µM
OVCAR-8 ovarian
  TGI: 23.2 µM
HS 578T breast
  TGI: 38.2 µM
A498 renal
  TGI: > 100 µM
LOX IMVI melanoma
  TGI: 73.4 µM
SNB-75 CNS
  TGI: 25.1 µM
K-562 leukemia
  TGI: > 100 µM
BT-549 breast
  TGI: > 100 µM
SR leukemia
  TGI: > 100 µM
RPMI-8226 leukemia
  TGI: > 100 µM
ACHN renal
  TGI: > 100 µM
HOP-92 NSCLC
  TGI: 70.8 µM
HCT-15 colon
  TGI: > 100 µM
HCC-2998 colon
  TGI: > 100 µM
SN12C renal
  TGI: > 100 µM
SK-MEL-28 melanoma
  TGI: 66.3 µM
A549 NSCLC
  TGI: > 100 µM
NCI-H226 lung
  TGI: 24.8 µM
MDA-MB-435
  TGI: 60.3 µM
MALME-3M melanoma
  TGI: 22.2 µM
SF-539 CNS
  TGI: 50 µM
M14 melanoma
  TGI: 66.6 µM
NCI/ADR-RES ovarian
  TGI: 22.5 µM
TK-10 renal
  TGI: > 100 µM
UO-31 renal
  TGI: > 100 µM
MDA-N
  TGI: 67.6 µM
MCF7 breast
  TGI: 47.8 µM
786-0 renal
  TGI: 30.2 µM
IGROV1 ovarian
  TGI: 23.7 µM
SK-MEL-5 melanoma
  TGI: 45.5 µM
OVCAR-3 ovarian
  TGI: 42.2 µM
SW-620 colon
  TGI: > 100 µM
HOP-62 NSCLC
  TGI: 28.7 µM
HT29 colon
  TGI: 28.6 µM
UACC-62 melanoma
  TGI: > 100 µM
EKVX NSCLC
  TGI: 29 µM
SK-MEL-2 melanoma
  TGI: 47.7 µM
MDA-MB-231 breast
  TGI: 40.9 µM
SF-295 CNS
  TGI: 54.5 µM
NCI-H23 lung
  TGI: > 100 µM
SK-OV-3 ovarian
  TGI: > 100 µM
SF-268 CNS
  TGI: 27.4 µM
UACC-257 melanoma
  TGI: 98.4 µM
MOLT-4 leukemia
  TGI: > 100 µM
NCI-H460 lung
  TGI: > 100 µM

— PubChem BioAssay (NCI)
